{"source": "patent EP2816108A1", "about": "“Transformed fungus with vitamin K dependent activity” (priority 2013, dated 2014)", "key": {"[1]": {"tested_on": "Aspergillus nidulans strain YR23.5", "assay": "Vitamin K growth test on solid media (Petri dishes), vitamin K quantified in lyophilised mycelium", "assay_type": "cell-based", "conditions": "in 100 mg DW (dry weight) of lyophilized fungal mycelium; growth tests in Petri dishes, 3 days", "description": "Solid Media. Minimal media plates including vitamin K (vitamin K1, Fluka, 99%) were prepared. On top of the agar medium, sterile cellophane was placed to inhibit direct contact between the media and fungal cells. Spores of strain YR23.5 were plated in a concentration of ca. 10E+5 per plate. After 3 days of growth, harvesting was done by scraping off the mycelium from cellophane. Then the mycelium was frozen and pulverized in liquid nitrogen. The powder was subsequently lyophilised and sent for vitamin K analysis to LUFA-ITL (Landwirtschaftliche Untersuchungs- und Forschungsanstalt Institut für Tiergesundheit u Lebensmittelqualität GmbH, Kiel, Germany). Liquid media. The strain YR23.5 was pre-cultivated for 48 hours in 2 x 250 ml of liquid minimal media at 37°C, 180 rpm in Erlenmeyer flasks. Mycelium was harvested by filtration, washed and re-suspended in sterile minimal medium and separated into four equal aliquots of roughly 250 mg wet weight (corresponding to roughly 50 mg dry weight). Culture volume was set to 30 ml. […]\nThe vitamin uptake ability of A.nidulans was studied with growth tests in Petri dishes. In addition, vit.K uptake and unspecific resorption of vit.K to the fungal cell wall was analyzed in liquid cultures. According to growth tests in Petri dishes, 752 µg of vitamin K was quantified in 100 mg DW (dry weight) of lyophilized fungal mycelium. […]"}, "[2]": {"tested_on": "Aspergillus nidulans strain YR 23.5", "assay": "Vitamin K uptake in liquid cultures, viable versus heat-inactivated mycelium", "assay_type": "cell-based", "conditions": "for Uptake (vitamin K / DW): active minus inactive", "description": "Solid Media. Minimal media plates including vitamin K (vitamin K1, Fluka, 99%) were prepared. On top of the agar medium, sterile cellophane was placed to inhibit direct contact between the media and fungal cells. Spores of strain YR23.5 were plated in a concentration of ca. 10E+5 per plate. After 3 days of growth, harvesting was done by scraping off the mycelium from cellophane. Then the mycelium was frozen and pulverized in liquid nitrogen. The powder was subsequently lyophilised and sent for vitamin K analysis to LUFA-ITL (Landwirtschaftliche Untersuchungs- und Forschungsanstalt Institut für Tiergesundheit u Lebensmittelqualität GmbH, Kiel, Germany). Liquid media. The strain YR23.5 was pre-cultivated for 48 hours in 2 x 250 ml of liquid minimal media at 37°C, 180 rpm in Erlenmeyer flasks. Mycelium was harvested by filtration, washed and re-suspended in sterile minimal medium and separated into four equal aliquots of roughly 250 mg wet weight (corresponding to roughly 50 mg dry weight). Culture volume was set to 30 ml. Two of these cultures received different vitamin K amounts, final concentration: 0.5 mg/mL and 0.05 mg/mL vitamin K (Konakion, micelles suspension, Roche, 10 mg/mL) and were grown for further 8 hours. Mock controls were grown in parallel for 8 hours without receiving vitamin K. After the growth phase the fungal cells were inactivated by boiling in the microwave oven (3 x 5 min at max. energy level), and subsequently vitamin K was added to the mock controls (final concentration, 0.5 and 0.05 mg/mL vitamin K). The inactivated cultures were further incubated in the rotary shaker for 30 minutes. All cultures were harvested at the same time point. Harvested biomass was washed, frozen and ground in liquid nitrogen, lyophilised and sent for analysis to LUFA-ITL (Landwirtschaftliche Untersuchungs- und Forschungsanstalt Institut für Tiergesundheit u Lebensmittelqualität GmbH, Kiel, Germany).\nThe vitamin uptake ability of A.nidulans was studied with growth tests in Petri dishes. In addition, vit.K uptake and unspecific resorption of vit.K to the fungal cell wall was analyzed in liquid cultures. According to growth tests in Petri dishes, 752 µg of vitamin K was quantified in 100 mg DW (dry weight) of lyophilized fungal mycelium. However, due to the set-up of this experiment it remains unclear if the vitamin K is either attached to the cell wall or actively taken up into the fungal cell. To clarify this, a second growth test comparing viable and heat-inactivated mycelium was performed. […] The maximal amount of vit.K unspecifically attached to the cell wall is approximately 20 µg per 100 mg (dry weight) of fungal mycelium. The majority of vitamin K was found in viable cells. The viable mycelium was able to take up approximately 8% of the vitamin K supplied through the culture medium (Hill et al.), more precisely 1,14 mg / 100 mg mycelium from the […] vit.K supplied in total (Table 2). Table 2: Vitamin K1 updake ability of Aspergillus nidulans strain YR 23.5. Vitamin K was added to liquid cultures, the final concentration as indicated. Fungal mycelium was inactivated by boiling in a microwave oven. Values which were obtained with inactivated fungal cell mass indicate the unspecific association of vitamin K to the fungal mycelium."}}, "data": [{"smiles": "CC1=C(C/C=C(\\C)CCC[C@H](C)CCC[C@H](C)CCCC(C)C)C(=O)c2ccccc2C1=O", "note": "[vitamin K, vitamin K1]", "values": [{"measurement": "vitamin K quantified in lyophilized fungal mycelium", "setting": "[1]", "result": 752, "unit": "µg"}, {"measurement": "Uptake (vitamin K / DW)", "setting": "[2]; fungal cell mass active, vitamin K added 50 µg/ml", "result": "169,1 µg/100 mg"}, {"measurement": "Absolute quantities (vitamin K / DW)", "setting": "[2]; fungal cell mass active, vitamin K added 50 µg/ml, liquid culture, 8 hours", "result": "183,0 µg/100 mg"}, {"measurement": "Uptake (vitamin K / DW)", "setting": "[2]; fungal cell mass active, vitamin K added 500 µg/ml", "result": "1122,1 µg/100 mg"}, {"measurement": "Absolute quantities (vitamin K / DW)", "setting": "[2]; fungal cell mass active, vitamin K added 500 µg/ml, liquid culture, 8 hours, DW = fungal mycelium (dry weight)", "result": "1140,0 µg/100 mg"}, {"measurement": "Absolute quantities (vitamin K / DW)", "setting": "[2]; fungal cell mass inactive (boiled in microwave oven), vitamin K added 50 µg/ml, unspecific association with mycelium", "result": "13,9 µg/100 mg"}, {"measurement": "Absolute quantities (vitamin K / DW)", "setting": "[2]; fungal cell mass inactive (boiled in microwave oven), vitamin K added 500 µg/ml, unspecific association with mycelium", "result": "17,9 µg/100 mg"}, {"measurement": "maximal amount of vit.K unspecifically attached to the cell wall", "setting": "[2]; per 100 mg (dry weight) of fungal mycelium, inactivated cultures", "result": "approximately 20 µg per 100 mg"}, {"measurement": "vitamin K taken up of the vitamin K supplied through the culture medium", "setting": "[2]; viable mycelium", "result": "approximately 8%"}, {"measurement": "vitamin K taken up by viable mycelium", "setting": "[2]; viable mycelium, from the 50 mg vit.K supplied in total", "result": "1,14 mg / 100 mg mycelium"}]}]}
